This is an account of results in PubChem BioAssay (NCI).

Among the test systems are UACC-257 melanoma; SK-MEL-5 melanoma; HCT-15 colon; HS 578T breast; SK-MEL-2 melanoma; OVCAR-5 ovarian; SK-OV-3 ovarian; SF-295 CNS; DMS 273 small cell lung; DMS 114 small cell lung.
What all share (test): inhibition of tumour cell growth, NCI panel, 48 h

Structures are written as SMILES.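 A five-concentration, 48-hour dose response in 96-well plates underlies each endpoint, interpolated linearly between surrounding concentrations. GI50: concentration for 50% inhibition of growth. Definition used: TGI = concentration required for complete inhibition of growth.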

With `CC1SC2(CCCCC2)N(NC(=O)c2[nH]c3ccc(Br)cc3c2-c2ccccc2)C1=O` (stereo unspecified), the GI50 in the assay with UACC-257 melanoma is 23.6 µM; in the assay with SK-MEL-5 melanoma, more than 100 µM; in the assay with HCT-15 colon it was more than 100 µM; in the assay on HS 578T breast, 70.7 µM; in the assay on SK-MEL-2 melanoma it was more than 100 µM; with OVCAR-5 ovarian, 58.7 µM. Besides, the results for the GI50 in the assay with SK-OV-3 ovarian and in the assay with SF-295 CNS were more than 100 µM and 10.7 µM, respectively. Also, the TGI in the assay on UACC-257 melanoma, with SK-MEL-5 melanoma, with HCT-15 colon, in the assay with HS 578T breast, in the assay with SK-MEL-2 melanoma and in the assay with OVCAR-5 ovarian was more than 100 µM in each case. The TGI in the assay with SK-OV-3 ovarian is more than 100 µM; with SF-295 CNS, 46.7 µM.
In the case of `COCCOCCOCCOc1cccc2c1C(=O)c1cccc(OCCOCCOCCOC)c1C2=O`, the TGI in the assay on DMS 273 small cell lung, with UACC-257 melanoma, with SK-MEL-5 melanoma, in the assay on HCT-15 colon, in the assay on SK-OV-3 ovarian and in the assay with SF-295 CNS was more than 100 µM each time. Further, the TGI in the assay on DMS 114 small cell lung was more than 100 µM.
Regarding `Cn1cc(C2=C(Nc3ccccc3)C(=O)NC2=O)c2ccccc21`, the GI50 is more than 25 µM with UACC-257 melanoma; more than 25 µM in the assay on SK-MEL-5 melanoma; 24.8 µM in the assay with HCT-15 colon; more than 25 µM with HS 578T breast; more than 25 µM in the assay with SK-MEL-2 melanoma; more than 25 µM with OVCAR-5 ovarian. Besides, the GI50 in the assay with SK-OV-3 ovarian and in the assay with SF-295 CNS was more than 25 µM each time. The TGI in the assay with UACC-257 melanoma, in the assay on SK-MEL-5 melanoma, in the assay with HCT-15 colon, in the assay on HS 578T breast, with SK-MEL-2 melanoma and in the assay on OVCAR-5 ovarian was more than 25 µM in each case. Moreover, the TGI with SK-OV-3 ovarian and in the assay on SF-295 CNS was more than 25 µM in each case.
As for `COc1cc2c(c(OC)c1OC)-c1ccc(N=NC(N)=S)c(=O)cc1[C@@H](NC(C)=O)CC2`, the GI50 is more than 100 µM with UACC-257 melanoma; 0.324 µM with SK-MEL-5 melanoma; 6 µM in the assay with HCT-15 colon; 0.294 µM in the assay on HS 578T breast; 0.393 µM in the assay on SK-MEL-2 melanoma; 2.26 µM in the assay on OVCAR-5 ovarian. Also, the GI50 in the assay on SK-OV-3 ovarian is 0.43 µM; with SF-295 CNS, 1.45 µM. Besides, the TGI with UACC-257 melanoma was more than 100 µM; in the assay with SK-MEL-5 melanoma it was 1.24 µM; in the assay with HCT-15 colon, more than 100 µM; with SK-MEL-2 melanoma, more than 100 µM; in the assay with OVCAR-5 ovarian, more than 100 µM; in the assay with SF-295 CNS, more than 100 µM.
For the molecule `C[C@@H](CO)NC(=O)c1cc(-c2ccc(Cl)cc2)nn(-c2cnn(C)c2)c1=O`, the GI50 is 30.6 µM in the assay with UACC-257 melanoma; 12.7 µM in the assay with SK-MEL-5 melanoma; 17.2 µM with HCT-15 colon; 24.8 µM in the assay on HS 578T breast; 59.9 µM in the assay on SK-MEL-2 melanoma; 28.7 µM in the assay with OVCAR-5 ovarian. For the same molecule, the GI50 with SK-OV-3 ovarian is 82.6 µM; in the assay on SF-295 CNS it was 16.4 µM. Moreover, the TGI with UACC-257 melanoma was more than 100 µM; in the assay with SK-MEL-5 melanoma, 26 µM; with HCT-15 colon, more than 100 µM; in the assay on HS 578T breast, more than 100 µM; in the assay on SK-MEL-2 melanoma it was more than 100 µM; in the assay with OVCAR-5 ovarian, more than 100 µM. Besides, the TGI in the assay with SK-OV-3 ovarian is more than 100 µM; in the assay with SF-295 CNS it was 50.7 µM.
Turning to `Cc1cccc2c3c(sc12)C(c1ccc(F)cc1)C(C#N)=C(N)O3` (stereo unspecified), the GI50 in the assay on UACC-257 melanoma is 10.6 µM; in the assay with SK-MEL-5 melanoma, 0.111 µM; in the assay on HCT-15 colon it was 0.0447 µM; in the assay with HS 578T breast, 0.0482 µM; with SK-MEL-2 melanoma, 1.7 µM; in the assay with OVCAR-5 ovarian, 0.325 µM. Moreover, the GI50 with SK-OV-3 ovarian was 1.35 µM; with SF-295 CNS, 0.0284 µM. Further, the TGI in the assay with UACC-257 melanoma was 36.8 µM; in the assay with SK-MEL-5 melanoma it was 1.38 µM; in the assay with HCT-15 colon it was 10.7 µM; in the assay with HS 578T breast, 1.95 µM; in the assay with SK-MEL-2 melanoma, 21.6 µM; in the assay on OVCAR-5 ovarian, 12.8 µM. Moreover, the TGI in the assay with SK-OV-3 ovarian came out at 27.8 µM; in the assay with SF-295 CNS, 0.329 µM.
Turning to `CN(CCC(=O)/C(=C\c1ccccc1)c1ccc(Cl)cc1)Cc1ccccc1`, the GI50 is 10.7 µM in the assay with UACC-257 melanoma; 3.44 µM with SK-MEL-5 melanoma; 2.42 µM in the assay on HCT-15 colon; 3.99 µM in the assay on HS 578T breast; 2.6 µM in the assay with SK-MEL-2 melanoma; 3.53 µM with OVCAR-5 ovarian. The GI50 in the assay on SK-OV-3 ovarian is 12.7 µM; in the assay on SF-295 CNS, 2.76 µM. In addition, the TGI in the assay on UACC-257 melanoma turned out to be 24.2 µM; in the assay with SK-MEL-5 melanoma, 13.1 µM; in the assay with HCT-15 colon it was 7.05 µM; in the assay on HS 578T breast, 47.5 µM; in the assay on SK-MEL-2 melanoma, 7.23 µM; in the assay with OVCAR-5 ovarian, 10.4 µM. For the same molecule, the TGI in the assay with SK-OV-3 ovarian worked out at 26.4 µM; with SF-295 CNS, 7.5 µM.
For `COCCOCCOCc1n(Cc2ccc3ccccc3n2)c2ccccc2[n+]1Cc1ccc2ccccc2n1`, the GI50 is 0.277 µM in the assay with UACC-257 melanoma; 0.388 µM with SK-MEL-5 melanoma; 15.8 µM with HCT-15 colon; 2.16 µM in the assay with HS 578T breast; 0.447 µM with SK-MEL-2 melanoma; 2.5 µM in the assay on OVCAR-5 ovarian. Besides, the results for the GI50 in the assay with SK-OV-3 ovarian and in the assay with SF-295 CNS were 1.79 µM and 1.69 µM, respectively. In addition, the TGI is 3.73 µM with UACC-257 melanoma; 1.48 µM in the assay on SK-MEL-5 melanoma; 52 µM in the assay on HCT-15 colon; 21 µM with HS 578T breast; 2.39 µM in the assay on SK-MEL-2 melanoma; 18 µM with OVCAR-5 ovarian. Besides, the TGI is 6.6 µM in the assay with SK-OV-3 ovarian and 8.19 µM with SF-295 CNS.
Regarding `O=C(CC1C=Cc2ccccc2N1C(=O)c1ccccc1)c1ccccc1` (stereo unspecified), the TGI in the assay on UACC-257 melanoma was 61.3 µM; with SK-MEL-5 melanoma it was 30.2 µM; in the assay on HCT-15 colon it was more than 100 µM; in the assay with HS 578T breast, 67.4 µM; in the assay with SK-MEL-2 melanoma, 38.8 µM; in the assay with OVCAR-5 ovarian, more than 100 µM. Moreover, the results for the TGI in the assay on SK-OV-3 ovarian and in the assay on SF-295 CNS were more than 100 µM and 78.1 µM, respectively.
As for `N#CC(C#N)=C/C=C(\Sc1ccc(F)cc1Cl)c1ccc(Cl)cc1`, the GI50 was 1.8 µM with UACC-257 melanoma; 2.59 µM in the assay with SK-MEL-5 melanoma; 0.425 µM in the assay on HCT-15 colon; 1.53 µM in the assay with HS 578T breast; 1.45 µM with SK-MEL-2 melanoma; 0.605 µM in the assay on OVCAR-5 ovarian. In addition, the GI50 was 2.8 µM in the assay with SK-OV-3 ovarian and 0.639 µM with SF-295 CNS. Moreover, the TGI in the assay on UACC-257 melanoma is 4.76 µM; in the assay with SK-MEL-5 melanoma, 8.58 µM; with HCT-15 colon, 1.58 µM; in the assay on HS 578T breast, 28.2 µM; in the assay with SK-MEL-2 melanoma, 8.17 µM; in the assay with OVCAR-5 ovarian it was 2.61 µM. The TGI with SK-OV-3 ovarian is 23.4 µM; with SF-295 CNS, 6.79 µM.
